System: OR6 cells
Assay: Secondary assay cell viability (CellTiter-Glo)
Conditions: 48 hours
Experimental: Secondary Assays-Hit Validation. Several hits from primary HTS, as well as functionally related compounds, were purchased from Sigma (St. Louis, Mo.), Calbiochem (San Diego, Calif.), and Microsource (Gaylordsville, Conn.). […] Ten mM of stock solutions of the individual compounds to be tested was prepared in the appropriate solvent (DMSO, ethanol, or H2O, according to the manufacturer's information) and stored at −20° C. Cells were seeded into 96-well plates at a density of 2000 cells/well in 100 μL of medium. The cells were incubated for 24 hours at 37° C. to obtain the optimal level of adherence. Solutions of candidate hit compounds were added to wells to achieve final concentrations of 0.1, 1, 10, 50, and 100 μM. The final concentration of DMSO or ethanol in every well was 1% or less by volume. Mock solutions were used as a negative control. PEG-IFN and ribavirin were used as positive controls at various concentrations, alone and in combination. The plates were then incubated at 37° C. with 5% CO2 for 48 hours before they were analyzed. Luminescent signal was generated using the Renilla luciferase assay kit (Promega) according to the manufacturer's instructions. Signal was then detected using a LumiCount (Packard BioScience Company) luminometer. Cell viability was assessed using CellTiter-Glo (Promega), following the manufacturer's instructions. All experiments were performed in triplicate.
Secondary Assays-Data Analysis. Values were presented as a percentage of mock treated control, which was arbitrarily set at 100%. Data were expressed as the mean (±) SD. […] Synergy calculations were performed using CalcuSyn (Biosoft; Cambridge, England).
Secondary Assays—Hit Validation: 10 mM of stock solutions of the individual compounds to be tested were prepared in DMSO and stored at −20° C. Cells were seeded into 96-well plates at a density of 2,000 cells/well in 100 μl of medium. The cells were incubated for 24 hours at 37° C. to obtain the optimal level of adherence. Solutions of candidate hit compounds were added to wells to achieve varying final concentrations between 0.01 and 100 μM. The final concentration of DMSO or ethanol in every well was 1% or less by volume. Mock solutions were used as a negative control. Peginterferon-alfa-2b (PEG-Intron; Schering Corp.; Kenilworth, N.J.) and ribavirin (Sigma; St. Louis, Mo.) were used as positive controls at various concentrations, alone and in combination. The plates were then incubated at 37° C. with 5% CO2 for 48 hours before they were analyzed. Luminescent signal was generated using the Renilla luciferase assay kit (Promega; Madison, Wis.) according to the manufacturer's instructions. Signal was then detected using a LumiCount™ (Packard BioScience Company; Downers Grove, Ill.) luminometer. Cell viability was assessed using CellTiter-Glo (Promega; Madison, Wis.), following the manufacturer's instructions. All experiments were performed in triplicate. Values were presented as a percentage of mock treated control, which was arbitrarily set at 100%. Data were expressed as the mean±SD.
Secondary Assays—Data Analysis: Values were presented as a percentage of mock treated control, which was arbitrarily set at 100%. Data were expressed as the mean±SD.

Structure (SMILES)	concentrations at which cytotoxic effects were exhibited	concentrations with no significant/observed cytotoxicity	other results
CC(=O)OC[C@H]1O[C@H](CCO/N=C2/[C@H]3CCn4c(=O)n(-c5ccccc5)c(=O)n4[C@H]3[C@H](O)[C@@H]3O[C@H]23)C=C[C@@H]1OC(C)=O [BUCMLD-B10A3]	above 7 μM	–	–
Cc1cc2c(nc1C)CCCN2CC(C)O/N=C1/[C@H]2CCn3c(=O)n(-c4ccccc4)c(=O)n3[C@H]2[C@H](O)[C@@H]2O[C@H]12 (some centres unmarked) [BUCMLD-B10A5]	≥ 30 µM	–	–
Cc1cc(C)c(-c2cc([C@H](C)O/N=C3/[C@H]4CCn5c(=O)n(-c6ccccc6)c(=O)n5[C@H]4[C@H](O)[C@@H]4O[C@H]34)on2)c(C)c1 [BUCMLD-B10A11]	–	≤ 10 µM	–
O=C1C2(CO)C=C(Br)C(CC2c2ccccc2)[C@@]12CO2 (some centres unmarked) [SM_A6B5_2P100]	–	≤ 30 µM	–
COc1cc2c(cc1OC)-c1c/c(=N\c3c(C)cc(C)cc3C)n(C)c(=O)n1CC2 [trequinsin, reference compound]	–	–	cytotoxicity (in words): significant cytotoxicity only at the higher concentrations of 50 and 100 μM

Source: patent US20120094939A1, “ANTI-VIRAL COMPOUNDS, COMPOSITIONS AND METHODS” (priority 2007, published 2012)
